From publication PMC6265740, “Biochemical and Anti-Triple Negative Metastatic Breast Tumor Cell Properties of Psammaplins” (Marine Drugs, 2018)

Key:
[1] = system: HIF-1; experiment: T47D cell-based reporter assay (pHRE-luc) for HIF-1 activity; set-up: species or system human; settings: 10 μM; for HIF-1 activation (highest level): T47D pHRE-luc, 16 h, no stimulus, n = 3; for normalized ratio of pHRE-luc/pGL3-control: T47D
Method: Cellular adaptation to hypoxia (low oxygen tension) is primarily mediated via the transcription factor hypoxia-inducible factor-1 (HIF-1), that regulates oxygen homeostasis by activating the expression of genes that increase oxygen availability and those that decrease oxygen consumption. […] In a T47D cell-based reporter assay, a lipid extract sample of the sponge Dendrilla lacunosa activated HIF-1 by 3.56-fold (NIH collection No. C025691, 10 μg mL^−1). Bioassay-guided fractionation of the extract sample (2.6 g) and chemical structure elucidation afforded five known compounds psammaplin E (1), (E,Z)-psammaplin A (2), (E,E)-psammaplin K (3), (E,E)-psammaplin A (4), and bisaprasin (5). To determine the effects of 1–5 on HIF-1 activity, concentration-response studies were performed in a T47D cell-based reporter assay (Figure 1B). An iron chelator (1,10-phenanthroline, 10 μM) was included as a positive control. Compounds 1–4 activated HIF-1 in a biphasic manner. […] Hypoxia (1% O2) and chemical hypoxia (iron chelators or transition metals) represent two common stimuli that activate HIF-1 [24, 25, 26]. Further studies were performed to determine the effects of 1–5 on HIF-1 activity in the presence of other stimuli (1,10-phenanthroline, Figure 1C; hypoxia, Figure 1D). While 1–4 acted synergistically with 1,10-phenanthroline and hypoxia to activate HIF-1, a biphasic pattern of activation similar to that in the absence of stimulus […] was observed. […] Previous studies reported that psammaplins inhibit histone deacetylase (HDAC) enzymes. To determine if HDAC inhibition non-specifically activates HIF-1, concentration-response studies were conducted in T47D cells transfected with the pGL3-control plasmid. […] One possible scenario is that these compounds incur significant amount of cellular stress at higher concentrations, leading to the inhibition of gene expression in general.
Figure 1 Concentration-dependent biphasic effects of 1–4 on HIF-1 activation. (A) Structures of psammaplins isolated from Dendrilla lacunosa. (B) Concentration-response results of 1–5 in T47D cells transfected with pHRE-luc for HIF-1 activity. Test compounds were added at the increasing concentrations of 0.1, 0.3, 1, 3, 10, and 30 µM, as specified. The positive control 1,10-phenanthroline (1,10-phen) was used at 10 µM. Data shown are average ± standard deviation (n = 3). (C) Similar to described in (B) except that the pHRE-luc transfected T47D cells were exposed to test compounds in the presence of 10 µM 1,10-phen, and the data were normalized to the positive control (1,10-phen). (D) Similar to described in (C) except that hypoxic exposure (1% O2: 5% CO2: 94% N2, 16 h) was applied in place of 1,10-phen. (E) As described in (B) except that T47D cells were transfected with the pGL3-control construct. An asterisk “*” indicates p < 0.05 when compared to the controls (“Media” for B, D, and E; and “1,10-phen” for C).
To monitor HIF-1 activity, T47D cells were transfected with the pHRE3-TK-Luc construct and the cell-based luciferase reporter assay was performed as described. Cells were exposed to test compounds in the absence and presence of 1,10-phenanthroline (10 μM) or hypoxic conditions (1% O2: 5% CO2: 94% N2) for 16 h. The cells were lysed and luciferase activity determined with a commercial kit (Promega, Madison, WI, USA). For the cell-based control reporter assay, T47D cells were transfected with the pGL3-control construct (Promega, Madison, WI, USA), exposed to test compounds for 16 h, and the luciferase reporter assay performed as described.

[2] = system: HDAC; experiment: MDA-MB-435 cell-based HDAC assay (HDAC-Glo); settings: MDA-MB-435 cells, 30 min incubation, n = 6 pooled from two experiments
Method: Test compounds were added at specified concentrations to exponentially grown cells plated in 96-well plates. After 30 min incubation, the HDAC activity was determined using a commercial kit (HDAC-Glo™, Promega, Madison, WI, USA) and normalized to that of the dimethyl sulfoxide (DMSO) solvent control.
Exponentially grown cells were seeded at the density of 5000 cells/well into 96-well plates (Corning, Corning, NY, USA) and incubated overnight. Compounds dissolved in DMSO were added to achieve the specified final concentrations (total volume: 100 μL, DMSO: 0.5%). The incubation continued for 30 min at 37 °C and the HDAC activity determined using a commercial luminescent assay (HDAC-Glo™, Promega, Madison, WI, USA).

[3] = system: BoM spheroids; experiment: Cultrex 3D spheroid cell invasion assay; format: cell-based, human
Method: In order to form metastatic lesions, metastasis-initiating tumor cells must invade and intravasate into the lymphatic vasculature and/or blood vessels. Psammaplins were evaluated in a Cultrex® 3-D cell invasion assay that monitors the invasion and migration of tumor cells grown as spheroids, which closely model in vivo pathophysiological conditions.
Figure 5 Inhibition of bone metastatic BoM cell invasion. Tumor cell spheroids formed in a special spheroid formation extracellular matrix (ECM) were embedded in an invasion matrix containing 10% fetal bovine serum (FBS) in the presence and absence of compounds at the specified concentrations. Four days later (T96), cell invasion was recorded microscopically (the bar at the bottom right represents 100 µm).
The 3D spheroid cell invasion assay was performed using a commercial kit, following the manufacturer’s instructions (Cultrex® 3D Spheroid Cell Invasion Assay, Trevigen, Gaithersburg, MD, USA). Briefly, exponentially grown MDA-MB-231, LM, BoM, and BrM cells were trypsinized, collected, and resuspended in serum-free DMEM/F12 media. For spheroid formation, 3000 cells were added in a volume of 50 µL serum-free DMEM/F12 media with 1× spheroid formation solution/well into a pre-cooled 96-well plate. The plate was centrifuged at 100× g for 5 min at 4 °C, incubated at 37 °C for 24 h, and the spheroids imaged using an Axiovert 40 CFL microscope (Zeiss, Oberkochen, Germany). The plate was placed on ice, the invasion mix added in a volume of 50 µL/well, centrifuged at 350× g for 5 min at 4 °C, and incubated at 37 °C for 1 h. Test compounds and controls were diluted to two times the final concentrations in DMEM/F12 media supplemented with FBS (10%) and antibiotics, and added in a volume of 100 µL/well. The incubation continued for another 4 days at 37 °C and the cells/spheroids imaged (T96).

[4] = system: VEGF protein; experiment: ELISA of cellular and secreted VEGF proteins in T47D cells; format: cell-based, human; settings: normalized to cellular proteins
Source text: (§1) Around 100 genes have been identified as HIF-1 target genes that encode proteins involved in various aspects of cellular physiology. While most of these genes are regulated in a cell type-specific manner, some are induced upon HIF-1 activation in most cell types. Based on availability and potency, compound 4 (a stereoisomer of 2) was selected for follow-up studies. The effects of 4 on the expression of HIF-1 target genes cyclin dependent kinase inhibitor 1A (CDKN1A) and vascular endothelial growth factor A (VEGFA) were examined by quantitative real time RT-PCR (Figure 2). The HIF-1 activator 1,10-phen (10 μM) and the pan-HDAC inhibitor TSA (0.1 and 1 μM, respectively) were included as positive controls. In T47D cells, 4 and TSA each increased the levels of CDKN1A mRNA in a concentration-dependent manner (2.9-fold for 4 at 10 μM and 7.2-fold for TSA at 1 μM, Figure 2A). In contrast, neither 4 nor TSA exerted greater than 20% effect on the levels of VEGF mRNA (Figure 2B). The gene VEGF encodes vascular endothelial growth factor A (a potent angiogenic factor) and agents that inhibit VEGF are in clinical use for cancer. The expression of cellular and secreted VEGF proteins was examined in T47D cells by ELISA assay.
Figure 2 Effects of 4 and trichostatin A (TSA) on HIF-1 target gene expression. T47D cells were exposed to 4 and TSA at the specified concentrations for 16 h. The compound 1,10-phen (10 µM) was included as a positive control. The levels of cyclin dependent kinase inhibitor 1A (CDKN1A) (A) and vascular endothelial growth factor (VEGF) (B) mRNA following treatments were determined by quantitative real time RT-PCR. Relative levels of target gene mRNA normalized to an internal control (18S rRNA) are shown as average ± standard deviation (n = 3, one representative experiment). The levels of cellular (C) and secreted VEGF protein (D) were determined by ELISA and normalized to the amount of cellular proteins. Data shown are average + standard deviation (n = 3). An asterisk “*” indicates p < 0.05 when compared to the media control.
(§2) The effects of test samples on HIF-1 target gene expression were assessed in T47D cells. To determine the levels of CDKN1A and VEGF mRNA, quantitative real-time RT-PCR was performed as described. To determine the levels of cellular and secreted VEGF proteins, T47D cells were exposed to compounds as described, the levels of VEGF proteins in the conditioned medium and cell lysate samples determined by ELISA [21], the amount of proteins in the cell lysate samples quantified using a micro BCA assay kit (Thermo Fisher Scientific, Rockford, IL, USA), and the level of VEGF proteins normalized to that of cellular proteins.

[5] = system: CDKN1A mRNA; experiment: Quantitative real time RT-PCR of CDKN1A mRNA in T47D cells; format: cell-based, human; settings: 1 μM, 16 h
Source text: Around 100 genes have been identified as HIF-1 target genes that encode proteins involved in various aspects of cellular physiology. While most of these genes are regulated in a cell type-specific manner, some are induced upon HIF-1 activation in most cell types. Based on availability and potency, compound 4 (a stereoisomer of 2) was selected for follow-up studies. The effects of 4 on the expression of HIF-1 target genes cyclin dependent kinase inhibitor 1A (CDKN1A) and vascular endothelial growth factor A (VEGFA) were examined by quantitative real time RT-PCR (Figure 2). The HIF-1 activator 1,10-phen (10 μM) and the pan-HDAC inhibitor TSA (0.1 and 1 μM, respectively) were included as positive controls. […]
(§3) Figure 2 Effects of 4 and trichostatin A (TSA) on HIF-1 target gene expression. […] The levels of cyclin dependent kinase inhibitor 1A (CDKN1A) (A) and vascular endothelial growth factor (VEGF) (B) mRNA following treatments were determined by quantitative real time RT-PCR. […] The levels of cellular (C) and secreted VEGF protein (D) were determined by ELISA and normalized to the amount of cellular proteins. […]
The effects of test samples on HIF-1 target gene expression were assessed in T47D cells. To determine the levels of CDKN1A and VEGF mRNA, quantitative real-time RT-PCR was performed as described. […]

[6] = system: VEGF mRNA; experiment: Quantitative real time RT-PCR of VEGF mRNA in T47D cells; format: cell-based, human; settings: 16 h
Source text: as §1, with “The gene VEGF encodes vascular endothelial growth factor A (a potent angiogenic factor) and agents that inhibit VEGF are in clinical use for cancer. The expression of cellular and secreted VEGF proteins was examined in T47D cells by ELISA assay.” left out
as §3, §2

IC50 [2] [nM] | Structure (SMILES) | HIF-1 activation (highest level) [1] [fold] | normalized ratio of pHRE-luc/pGL3-control [1] [fold] | VEGF expression, cellular protein [4] | VEGF expression, secreted protein [4] | also measured
257 | NC(=O)C(=O)NCCSSCCNC(=O)/C(Cc1ccc(O)c(Br)c1)=N/O [Compound 1, psammaplin E] | 12.01 ± 1.12 | 2.64 |  |  | 
38 | O=C(NCCSSCCNC(=O)/C(Cc1cc(O)c(O)c(Br)c1)=N/O)/C(Cc1ccc(O)c(Br)c1)=N/O [Compound 3, (E,E)-psammaplin K] | 10.15 ± 0.66 | 2.38 |  |  | 
 | C[C@@H]1C[C@@H]([C@H](O)CC2CC(=O)NC(=O)C2)C(=O)[C@@H](C)C1 [CHX, cycloheximide] |  |  |  |  | size of the spheroids ([3]; 96 h, in comparison to the HDAC inhibitors): more pronounced decrease in the size of the spheroids
 | CC(/C=C/C(=O)NO)=C\[C@@H](C)C(=O)c1ccc(N(C)C)cc1 [TSA, trichostatin A] |  |  | None of the HDAC inhibitors examined (4 and TSA) increased VEGF protein levels | None of the HDAC inhibitors examined (4 and TSA) increased VEGF protein levels | increase in CDKN1A mRNA level [5]: 7.2 fold; effect on the levels of VEGF mRNA ([6]; concentrations tested): ≤ 20%; invasion of BoM spheroids into the extracellular matrix ([3]; 96 h (T96), 4 and TSA at 48 h proliferation IC50): inhibited the invasion of BoM spheroids
 | c1cnc2c(c1)ccc1cccnc12 [1,10-phen, 1,10-phenanthroline] |  |  | induced VEGF expression | induced VEGF expression | VEGF expression, mRNA ([6]; 10 μM): induced VEGF expression
